Experimental data reported in patent publication US20160257735A1, “REGULATION OF NPVF GENE AND ITS PRODUCTS: A METHOD FOR MODULATING ENERGY IMBALANCE” (Institute of Animal Reproduction and Food Research PAS, priority 2015, published 2016).
Ends that are not written are not given here.

Legend:
[1] = biological target: T1, rat orphan 7TM GPCR (OT7T022, GPR147, NPFFR1) (Rattus norvegicus, UniProt Q9EP86); settings: synthetic RFRPs; cited from earlier work
T1 construct: expressed in transfected cells; host or cells: CHO cells

[2] = tested on: NPFF receptors (NPFF1 and NPFF2 subtypes); settings: cited from earlier work
NPFFR1 = NPFFR1 (Homo sapiens, UniProt Q9GZQ6); settings: cited from earlier work
[3] = tested on: Npvf mRNA in hypothalamus; assay: CL 316,243 or saline administration for 7 days at 29° C., Npvf mRNA in hypothalamus by qRT-PCR; format: in vivo, mice (C57BL/6J); settings: one week administration, 1 mg/kg of body weight, subcutaneous, mice at 29° C.
Description: Total RNA was isolated from adipose tissue, liver and hypothalamus using TRI Reagent and BCP phase separation reagent (Molecular Research Center Inc. Cincinnati, Ohio, United States). RNA was further purified by using the RNAeasy minikit (QIAGEN, Valencia, Calif., United States) and stored at −80° C. in RNase-free H2O with addition of SUPERase-In (Ambion, Austin, Tex., United States) for RNase protection. Quality and quantity of RNA was determined using UV spectrophotometry (Nanodrop) and agarose gel visualization of intact RNA. Quantitative RT-PCR using TaqMan probes and primers (Applied Biosystems, Foster City, Calif., United States) was performed with standard curves generated using pooled RNA isolated from corresponding tissues collected from eight 8 week old C57BL/6J.+/+ mice. Probe and primer sequences used to perform the analyses are available upon request. All the gene expression data were normalized to the level of cyclophilin b.
To establish the influence of different ambient temperature on Npvf expression mice were kept in climate-controlled rodent incubators. To evaluate the effects of the β adrenergic receptor agonist on Ucp1 and Npvf, thermoneutrally acclimated mice were injected subcutaneously with 1 mg kg^−1 […] or saline for 7 days.
All mice used in the following studies were adult wild-type C57BL/6J+/+ mice. […]

T1 sequence (Q9EP86 whole entry): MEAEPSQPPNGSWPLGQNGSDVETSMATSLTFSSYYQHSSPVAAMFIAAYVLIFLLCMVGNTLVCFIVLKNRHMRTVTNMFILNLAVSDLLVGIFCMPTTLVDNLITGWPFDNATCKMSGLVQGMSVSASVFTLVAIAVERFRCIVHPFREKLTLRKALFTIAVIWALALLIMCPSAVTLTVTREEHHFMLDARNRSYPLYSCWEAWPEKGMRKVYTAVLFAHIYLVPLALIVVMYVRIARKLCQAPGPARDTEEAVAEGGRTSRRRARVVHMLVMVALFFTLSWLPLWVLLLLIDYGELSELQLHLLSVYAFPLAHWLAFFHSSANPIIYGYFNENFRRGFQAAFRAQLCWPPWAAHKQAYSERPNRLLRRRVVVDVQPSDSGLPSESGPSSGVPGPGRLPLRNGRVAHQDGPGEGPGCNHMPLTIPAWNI
Sequence of NPFFR1 (Q9GZQ6 whole entry, species assumed): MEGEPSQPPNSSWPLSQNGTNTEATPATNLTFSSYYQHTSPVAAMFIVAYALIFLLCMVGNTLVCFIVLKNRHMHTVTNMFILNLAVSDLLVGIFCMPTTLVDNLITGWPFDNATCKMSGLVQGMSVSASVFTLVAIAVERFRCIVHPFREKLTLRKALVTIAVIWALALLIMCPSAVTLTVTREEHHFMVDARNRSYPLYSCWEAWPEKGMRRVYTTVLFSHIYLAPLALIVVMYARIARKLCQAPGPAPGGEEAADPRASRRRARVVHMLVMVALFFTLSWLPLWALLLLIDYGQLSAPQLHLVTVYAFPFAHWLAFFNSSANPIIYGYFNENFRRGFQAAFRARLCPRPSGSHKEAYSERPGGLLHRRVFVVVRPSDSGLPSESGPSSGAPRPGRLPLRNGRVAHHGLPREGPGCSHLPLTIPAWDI

In the case of “RFRP-3: RFamide-related peptide derived from Npvf precursor; human sequence VPNLPQRF-NH(2) (SEQ ID NO: 2)”, the “response of GPR147-transfected CHO cell lines” value [1] is listed as “responded specifically”.

In the case of “RFRP-1: RFamide-related peptide derived from Npvf precursor; human sequence MPHSFANLPLRF-NH(2) (SEQ ID NO: 1) (MPHSFANLPLRF-NH2; listed as Homo sapiens)”, the “response of GPR147-transfected CHO cell lines” value [1] is given as “responded specifically”.

For `NC(=O)[C@H](Cc1ccccc1)NC(=O)[C@H](CCCN=C(N)N)NC(=O)C12CC3CC(CC(C3)C1)C2` [RF9, adamantylcarbonyl-arginyl-phenylalaninamide], the “discrimination between NPFF1 and NPFF2 subtypes” value [2] is given as “does not distinguish between the NPFF1 and NPFF2 subtypes” and the “selectivity for NPFF receptors” value [2] is given as “selective for NPFF receptors”.

For `NC(N)=NCCC[C@@H](NC(=O)C(c1ccccc1)c1ccccc1)C(=O)NCc1ccc(O)cc1` [BIBP3226], the “binding to NPFFR1” value (NPFFR1) is given as “has been shown to bind to NPFFR1”.

For `C[C@H](Cc1ccc2c(c1)OC(C(=O)[O-])(C(=O)[O-])O2)NC[C@H](O)c1cccc(Cl)c1.[Na+].[Na+]` [CL 316,243], the “suppression of Npvf mRNA in hypothalamus compared to saline-treated control mice” value [3] was “did not result in the suppression of Npvf mRNA in hypothalamus”.
